Laboratory results published in US20110281883A1, “4-Phenyl-pyrane-3,5-diones, 4-Phenyl-thiopyrane-3,5-diones and Cyclohexanetriones and Their Use as Insecticides, Acaricides and/or Fungicides” (Bayer Cropscience AG, priority 2009, published 2011).

How the values were obtained:
[1] = test system: mustard beetle larvae (Phaedon cochleariae); assay: Phaedon cochleariae test (PHAECO spray application); format: in vivo; conditions: 168 h, application rate 500 g/ha, sprayed Chinese cabbage (Brassica pekinesis) leaf-disks, after 7 days, read-out: mortality in % (good activity)
Description: Phaedon cochleariae—Test; (PHAECO Spray Application)
Solvent: 78.0 parts by weight of acetone • • 1.5 parts by weight of dimethylformamide
Emulsifier: 0.5 parts by weight of alkylaryl polyglycolether
To produce a suitable preparation of active compound, 1 part by weight of active compound is mixed with the stated amount of solvent and emulsifier, and the concentrate is diluted with emulsifier-containing water to the desired concentration.Chinese cabbage (Brassica pekinesis) leaf-disks are sprayed with a preparation of the active ingredient of the desired concentration. Once dry, the leaf disks are infested with mustard beetle larvae (Phaedon cochleariae). After 7 days mortality in % is determined. 100% means that all beetle larvae have been killed and 0% means that none of the beetle larvae have been killed.

[2] = test system: two spotted spidermite (Tetranychus urticae), OP-resistant; assay: Tetranychus urticae test; OP-resistant (TETRUR spray application); format: in vivo; conditions: in Phaseolus vulgaris, 144 h, read-out: mortality in % (good activity)
Description: Tetranychus urticae—Test; OP-Resistant (TETRUR Spray Application)
Solvent: 78.0 parts by weight acetone • 1.5 parts by weight dimethylformamide
Emulsifier: 0.5 parts by weight alkylarylpolyglcolether
To produce a suitable preparation of active compound, 1 part by weight of active compound is mixed with the stated amount of solvent and emulsifier, and the concentrate is diluted with emulsifier-containing water to the desired concentration.French beans (Phaseolus vulgaris) which are heavily infested with all stages of the two spotted spidermite (Tetranychus urticae), are sprayed with a preparation of the active ingredient at the desired concentration. After 6 days mortality in % is determined. 100% means that all spider mites have been killed and 0% means that none of the spider mites have been killed.

Row | Structure (SMILES) | melting point | mortality at 500 g/ha [1] | mortality at 100 g/ha [2]
1 | CCc1ccc(-c2ccc(Cl)cc2)cc1C1=C(O)C2CCCC(C1=O)C2=O (centres unmarked) | 79.5 °C | – | –
2 | CCc1ccc(-c2ccc(Cl)cc2)cc1C1=C(O)C(C)(C)C(=O)C(C)(C)C1=O [Compound B-1] | – | > 80% | ≥ 80%
3 | CCc1ccc(-c2ccc(F)cc2)cc1C1=C(O)[C@@]2(C)CC[C@H](O2)C1=O | 165 to 167 °C | – | –
4 | CCc1ccc(-c2ccc(Cl)cc2)cc1C1=C(O)C(C)(C)OC(C)(COC)C1=O (centres unmarked) | 123 to 124 °C | – | –
